Here are results for 15 compounds from US20210261569A1, “FUSED HETEROCYCLIC DERIVATIVES HAVING SELECTIVE BACE1 INHIBITORY ACTIVITY” (Shionogi & Co., Ltd., priority 2018, published 2021).

Assay [1] has as its target T1, recombinant BACE1 protein (Homo sapiens, UniProt P56817).
T1 construct: recombinant BACE1 protein in a final concentration of 0.04 μg/mL
The assay can be described thus: BACE1 biochemical FRET based assay. Particulars: for Selectivity: BACE2 IC50 relative to BACE1 IC50; for IC50: FRET, pH 5.0, 450 min at room temperature. From the text:
(§1) This assay is a Fluorescence Resonance Energy Transfer Assay (FRET) based assay. The substrate for this assay is an APP derived 13 amino acids peptide that contains the ‘Swedish’ Lys-Met/Asn-Leu mutation of the amyloid precursor protein (APP) beta-site secretase cleavage site. This substrate also contains two fluorophores: (7-methoxycoumarin-4-yl) acetic acid (Mca) is a fluorescent donor with excitation wavelength at 320 nm and emission at 405 nm and 2,4-dinitrophenol (Dnp) is a proprietary quencher acceptor. […] Upon cleavage by BACE1, the fluorophore Mca is separated from the quenching group Dnp, restoring the full fluorescence yield of the donor. The increase in fluorescence is linearly related to the rate of proteolysis.
Briefly in a 384-well format recombinant BACE1 protein in a final concentration of 0.04 μg/mL was incubated for 450 minutes at room temperature with 10 μm substrate in incubation buffer (final concentrations: 33.3 mM Citrate buffer pH 5.0, 0.033% PEG, 3% DMSO) in the absence or presence of compound. Next the amount of proteolysis was directly measured by fluorescence measurement at T=0′-120′ and T=450′ (excitation at 320 nm and emission at 405 nm). Results were expressed in RFU (Relative Fluorescence Units), as difference between T450 and Tx (Tx is chosen depending on the reaction speed between 0 and 120 minutes).
(§2) A best-fit curve was fitted by a minimum sum of squares method to the plot of % Controlmin versus compound concentration. From this an IC50 value (inhibitory concentration causing 50% inhibition of activity) can be obtained.

Assay [2] deals with T2, recombinant BACE2 protein (Homo sapiens, UniProt Q9Y5Z0).
T2 construct: recombinant BACE2 protein in a final concentration of 0.4 μg/mL
T2 sequence (Q9Y5Z0 63-518): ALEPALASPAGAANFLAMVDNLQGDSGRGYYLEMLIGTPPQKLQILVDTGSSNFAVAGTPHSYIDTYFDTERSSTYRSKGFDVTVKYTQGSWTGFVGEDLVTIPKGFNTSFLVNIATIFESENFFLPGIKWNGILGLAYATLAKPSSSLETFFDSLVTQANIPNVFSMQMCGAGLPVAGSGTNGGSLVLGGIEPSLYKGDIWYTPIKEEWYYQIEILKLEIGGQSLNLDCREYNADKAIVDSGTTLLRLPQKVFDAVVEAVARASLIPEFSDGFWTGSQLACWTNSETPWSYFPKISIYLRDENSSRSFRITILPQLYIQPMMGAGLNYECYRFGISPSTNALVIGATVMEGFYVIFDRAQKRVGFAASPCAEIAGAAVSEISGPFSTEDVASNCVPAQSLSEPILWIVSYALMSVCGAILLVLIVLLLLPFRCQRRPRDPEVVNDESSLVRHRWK
The assay can be described thus: BACE2 biochemical FRET based assay. Particulars: pH 5.0, 450 min at room temperature.
Text: as §1, with “assay” for “assay is an APP derived 13 amino acids peptide that”, “beta-secretase” for “beta-site secretase”, “the beta-secretase,” for “BACE1,”
Briefly in a 384-well format recombinant BACE2 protein in a final concentration of 0.4 μg/mL was incubated for 450 minutes at room temperature with 10 μM substrate in incubation buffer (final concentrations: 33.3 mM Citrate buffer pH 5.0, 0.033% PEG, 2% DMSO) in the absence or presence of compound. Next the amount of proteolysis was directly measured by fluorescence measurement at T=0 and T=450 (excitation at 320 nm and emission at 405 nm). Results were expressed in RFU (Relative Fluorescence Units), as difference between T450 and T0.
as §2

T1 sequence (P56817 46-501): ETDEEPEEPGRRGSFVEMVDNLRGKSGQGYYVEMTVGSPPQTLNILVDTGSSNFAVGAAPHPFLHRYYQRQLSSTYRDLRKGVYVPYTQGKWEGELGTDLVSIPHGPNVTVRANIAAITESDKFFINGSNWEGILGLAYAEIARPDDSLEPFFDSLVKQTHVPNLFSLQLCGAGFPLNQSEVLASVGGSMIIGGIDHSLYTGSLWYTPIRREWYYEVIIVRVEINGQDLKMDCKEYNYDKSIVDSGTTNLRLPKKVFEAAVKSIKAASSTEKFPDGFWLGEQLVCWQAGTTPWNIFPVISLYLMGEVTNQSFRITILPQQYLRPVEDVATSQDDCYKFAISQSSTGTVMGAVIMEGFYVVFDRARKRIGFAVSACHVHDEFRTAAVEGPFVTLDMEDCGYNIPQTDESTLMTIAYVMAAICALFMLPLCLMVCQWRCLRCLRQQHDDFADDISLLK

Turning to `Cn1cc([C@@H]2OC[C@H]3OC(N)=N[C@](C)(c4cc(NC(=O)c5cnc(OCF)cn5)ccc4F)[C@H]32)cn1` [Compound I-014], the Selectivity in assay [1] stood at 223. Also, the IC50 in assay [1] amounted to 44.7 nM; in assay [2], 10000 nM.
In the same order, the values of `C[C@]1(c2cc(NC(=O)c3ccc(C#N)cn3)ccc2F)N=C(N)O[C@@H]2CO[C@@H](C(F)(F)F)[C@@H]21` [Compound I-016] are 62.3, 5.7 nM and 355 nM.
In the same order, the values of `C[C@]1(c2cc(NC(=O)c3ccc(C#N)cn3)ccc2F)N=C(N)O[C@@H]2CO[C@@H](CC(F)F)[C@@H]21` [Compound I-018] are 38.1, 1.2 nM and 45.7 nM.
In the same order, the values of `C[C@]1(c2cc(NC(=O)c3cnc(OCF)cn3)ccc2F)N=C(N)O[C@@H]2CO[C@@H](CC(F)F)[C@@H]21` [Compound I-019] are 60.2, 4.07 nM and 245 nM.
Regarding `C[C@]1(c2cc(NC(=O)c3ccc(C#N)cn3)ccc2F)N=C(N)O[C@@H]2CO[C@@H](CCF)[C@@H]21` [Compound I-020], in assay [1], the Selectivity stood at 21.4 and the IC50 was 2.19 nM. Moreover, the IC50 in assay [2] worked out at 46.8 nM.
In the same order, the values of `C[C@]1(c2cc(NC(=O)c3cnc(OCF)cn3)ccc2F)N=C(N)O[C@@H]2CO[C@@H](CCF)[C@@H]21` [Compound I-021] are 37.1, 8.51 nM and 316 nM.
In the same order, the values of `C[C@]1(c2cc(NC(=O)c3cnc(OCF)cn3)ccc2F)N=C(N)O[C@@H]2CO[C@@H](C(F)F)[C@@H]21` [Compound I-022] are 27.5, 24 nM and 661 nM.
For the compound `CC[C@@H]1OC[C@H]2OC(N)=N[C@](C)(c3cc(NC(=O)c4cnc(OCF)cn4)ccc3F)[C@@H]12` [Compound I-023], in assay [1], the Selectivity was found to be 51.2 and the IC50 came to 4.79 nM. Besides, the IC50 in assay [2] worked out at 245 nM.
For `CC(C)CCC[C@@H]1OC[C@H]2OC(N)=N[C@](C)(c3cc(NC(=O)c4cnc(OCF)cn4)ccc3F)[C@@H]12` [Compound I-025], in assay [1], the Selectivity came out at 9.3 and the IC50 turned out to be 1.26 nM. The concentration for half-maximal inhibition (IC50) in assay [2] is 11.7 nM.
Take `CC(C)C[C@@H]1OC[C@H]2OC(N)=N[C@](C)(c3cc(NC(=O)c4cnc(OCF)cn4)ccc3F)[C@@H]12` [Compound I-028]: the Selectivity in assay [1] is listed as 87.1. In addition, the values for the IC50 in assay [1] and in assay [2] were 6.76 nM and 589 nM, respectively.
In the same order, the values of `CC(C)C[C@@H]1OC[C@H]2OC(N)=N[C@](C)(c3cc(NC(=O)c4cnc(OC[C@@H](C)F)cn4)ccc3F)[C@@H]12` [Compound I-029] are 191, 22.9 nM and 4370 nM.
In the same order, the values of `C[C@@H](F)COc1cnc(C(=O)Nc2ccc(F)c([C@@]3(C)N=C(N)O[C@@H]4CO[C@@H](C(F)(F)F)[C@@H]43)c2)cn1` [Compound I-030] are 151, 66.1 nM and 10000 nM.
In the same order, the values of `Cc1noc(C)c1[C@@H]1OC[C@H]2OC(N)=N[C@](C)(c3cc(NC(=O)c4cnc(OCF)cn4)ccc3F)[C@H]21` [Compound I-031] are 282, 12 nM and 3390 nM.
Consider `C[C@H]1OC[C@H]2[C@@H]1OC(N)=N[C@]2(CF)c1cc(NC(=O)c2cnc(-n3cncn3)cn2)ccc1F` [Compound I-051], for which, in assay [1], the Selectivity stood at 63.1 and the IC50 came out at 5.01 nM. For the same compound, the IC50 in assay [2] was 316 nM.
In the same order, the values of `NC1=N[C@](CF)(c2cc(NC(=O)c3cnc(OCF)cn3)ccc2F)[C@@H]2COCC[C@H]2O1` [II-017] are 23.4, 7.6 nM and 178 nM.

Usually IC50 stands for the midpoint of a concentration-inhibition curve.
